Patent publication US9512086B2, “Compound for promoting apoptosis of cancer cells and a pharmaceutical composition containing the same and uses thereof” (National Chiao Tung University, priority 2014, dated 2016)

Key:
[1] = test system: RKO human rectal cancer cell line; test: MTT cell viability, RKO cells; format: cell-based; settings: 24 hours, in comparison with Iressa
Procedure: (§1) The above cell lines were plated in 96-well plates at a density of 1×10^4 cells/well for 16 to 20 hours. […] After drug treatment, the cell lines were washed with phosphate-buffered saline (hereinafter referred to PBS), and were replaced with fresh complete RPMI-1640 medium for 2 days. Thereafter, the medium was replaced and the cells were incubated with 0.5 mg/ml of 3-(4,5-dimethylthiazol-2-yl)-2,5-diphenyltetrazolium bromide reagent (hereinafter referred to MTT, Sigma Chemical Co., St. Louis, Mo.) in complete RPMI-1640 medium for 4 hours. The viable cells converted MTT to formazan that generates a blue-purple color when dissolved in dimethyl sulfoxide (hereinafter referred to DMSO). The intensity of formazan was measured at 565 nm using a plate reader (VERSAmax, Molecular Dynamics, Sunnyvale, Calif.). The relative percentage of cell viability was calculated by dividing the absorbance of treated cells by that of the control in each experiment.

A549 cell line = test: MTT cell viability, A549 cell line; format: cell-based, human; settings: Homo sapiens, A549 cell line, 24 hours, MTT
Procedure: as §1
(§2) After drug treatment, the cells were washed with PBS and replaced with fresh complete RPMI-1640 medium for 2 days. Thereafter, the medium was replaced and the cells were incubated with 0.5 mg/mL of MTT reagent (Sigma Chemical Co., St. Louis, Mo.) in complete RPMI-1640 medium for 4 hours. The intensity of formazan was measured at 565 nm using a plate reader (VERSAmax, Molecular Dynamics, Sunnyvale, Calif.). The relative percentage of cell viability was calculated by dividing the absorbance of treated cells by that of the control in each experiment.

[2] = test system: BFTC905 human bladder cancer cell line; test: MTT cell viability, BFTC905 cells; format: cell-based; settings: 24 hours, in comparison with Iressa
Procedure: as §1

A549 cells [3] = test: Cell growth, cell number by hemocytometer; format: cell-based, human; settings: 30 μM for 24 hours, then cultured 2-6 days
Procedure: The cells were washed with PBS after the treatment. […] The cell number was calculated with hemocytometer.

[4] = target: T1, MAPK14 (stress-activated protein kinase-2a) (Homo sapiens, UniProt Q16539); test: KinaseProfiler assay, MAPK14; format: biochemical; settings: read-out: KAR value (kinase activity remaining)
T1 construct: purchased Merck Millipore (KinaseProfiler service)
From the text: (§3) The kinase activity remaining (KAR) value is […] related to kinase activity. […]

[5] = MTT cell viability, HFL1 normal lung fibroblasts; format: cell-based; settings: human, HFL1 normal lung fibroblast cells, 0 to 40 μM
Procedure: as §2

PARP = test: Western blot of cleaved PARP in A549 cells; settings: 10-40 μM, 24 hours
Procedure: (§4) The protease inhibitors including 1 μg/ml aprotinin, 0.5 μg/ml leupeptin, and 100 μg/ml 4-(2-aminoethyl)benzenesulfonyl fluoride were added to the cell suspensions. The lysates were vibrated for 30 minutes at 4° C. and centrifuged at 10,000 rpm for 10 minutes. The protein concentrations were determined by the BCA protein assay kit (Pierce, Rockford, Ill.). […] The membranes were blocked overnight at 4° C. using blocking buffer (5% non-fat dried milk in solution containing 50 mM Tris/HCl (pH 8.0), 2 mM CaCl2, 80 mM NaCl, 0.05% Tween 20 and 0.02% sodium azide). The membranes were sequentially hybridized with primary antibody and followed with a horseradish peroxidase-conjugated secondary antibody. The protein bands were visualized on the X-ray film using the enhanced chemiluminescence detection system (PerkinElmer Life and Analytical Sciences, Boston, Mass.). […] To verify equal protein loading and transfer, actin was used as the protein loading control. The gel digitizing software, Un-Scan-It gel (Ver. 5.1, Silk Scientific, Inc., Orem, Utah), was used to analyze the intensity of protein bands on X-ray film.
(§5) A549 cells were plated at a density of 1×10^6 cells per 60-mm Petri dish in complete medium for 16 to 20 hours. […] To verify equal protein loading and transfer, actin was used as the protein loading control.

[6] = target: T2, CSNK2A1 (casein kinase-2) (Homo sapiens, UniProt P68400); test: KinaseProfiler assay, CSNK2A1; format: biochemical; settings: read-out: KAR value (kinase activity remaining)
T2 construct: purchased Merck Millipore (KinaseProfiler service)
From the text: as §3

[7] = target: T3, RET (product of ret proto-oncogene) (Homo sapiens, UniProt P07949); test: KinaseProfiler assay, RET; format: biochemical; settings: read-out: KAR value (kinase activity remaining)
T3 construct: purchased Merck Millipore (KinaseProfiler service)
From the text: as §3

survivin [8] = test: Western blot of survivin protein expression in A549 cells; settings: 0 to 40 μM, 24 hours
Procedure: as §4, §5

MARK2 (PAR-1Ba) = target: T4, MARK2 (PAR-1Ba) (Homo sapiens, UniProt Q7KZI7); test: KinaseProfiler assay, MARK2; format: biochemical; settings: read-out: KAR value (kinase activity remaining)
T4 construct: purchased Merck Millipore (KinaseProfiler service)
From the text: as §3

survivin [9] = test: RT-PCR of survivin gene expression in A549 cells; format: cell-based, human; settings: 0 to 40 μM, 24 hours
Procedure: After the treatment, total cellular RNA was purified by ZR RNA MiniPrep™ (Zymo Research, Irvine, Calif.) according to the manufacturer's protocol. RNA concentrations were determined by spectrophotometry. cDNAs were synthesized by SuperScript™ III reverse transcriptase with oligo (dT)12-18 primer (Invitrogen). Each reverse transcript was amplified with GAPDH as an internal control. Reverse transcription polymerase chain reaction (RT-PCR) was performed by a DNA thermal cycler (Mastercycler gradient, Hamburg, Germany). […] The conditions of RT-PCR are stated as followed: the initial denaturation was performed at 94° C. for 2 minutes, followed by 30 cycles at 94° C. for 30 seconds, 56° C. for 30 seconds, and 72° C. for 40 seconds; and 72° C. for 5 minutes. The PCR products were visualized on 1.2% agarose gels with ethidium bromide staining under UV transillumination, and photograph was taken by a camera DH27-S3 (Medclub, Taoyuan, Taiwan).

[10] = target: T5, LIMK1 (LIM motif-containing protein kinase-1) (Homo sapiens, UniProt P53667); test: KinaseProfiler assay, LIMK1; format: biochemical; settings: read-out: KAR value (kinase activity remaining)
T5 construct: purchased Merck Millipore (KinaseProfiler service)
From the text: as §3

[11] = target: T6, SYK (splenic tyrosine kinase) (Homo sapiens, UniProt P43405); test: KinaseProfiler assay, SYK; format: biochemical; settings: read-out: KAR value (kinase activity remaining)
T6 construct: purchased Merck Millipore (KinaseProfiler service)
From the text: as §3

[12] = target: T7, MKNK2 (MAPK-interacting kinase-2) (Homo sapiens, UniProt Q9HBH9); test: KinaseProfiler assay, MKNK2; format: biochemical; settings: read-out: KAR value (kinase activity remaining)
T7 construct: purchased Merck Millipore (KinaseProfiler service)
From the text: as §3

[13] = target: T8, FGFR1 (fibroblast growth factor receptor-1) (Homo sapiens, UniProt P11362); test: KinaseProfiler assay, FGFR1; format: biochemical; settings: read-out: KAR value (kinase activity remaining)
T8 construct: purchased Merck Millipore (KinaseProfiler service)
From the text: as §3

A549 cells [14] = test: Annexin V-PI apoptosis analysis by flow cytometry; format: cell-based, human; settings: 10-40 μM for 24 hours
Procedure: The Annexin V-PI staining kit (BioVision, Mountain View, Calif.) was used to exam the cells by incubating with fluorescent isothiocyanate (FITC)-conjugated-Annexin V and PI according to the manufacturer's instruction. […] The cells were cultured in 60-mm Petri dish at a density of 7×10^5 cells for 16 to 20 hours. […] The cells were trypsinized and collected by centrifugation at 1500 rpm for 5 minutes. Thereafter, the cells were incubated with 500 μl Annexin V-PI labeling solution (containing 5 μl Annexin V-FITC and 5 μl PI in PBS) at room temperature in the dark for 5 minutes. To avoid cell aggregation, the cell solutions were filtered through a nylon mesh membrane (Becton-Dickinson, San Jose, Calif.). Finally, the samples were analyzed immediately using flow cytometer (FACS Calibur, BD Biosciences, Heidelberg, Germany). The percentage of Annexin V-PI staining cells was quantified from a minimum of 10,000 cells by CellQuest software (BD Biosciences).

A549 cells [15] = test: Cell cycle analysis, PI staining and flow cytometry; format: cell-based, human; settings: 40 μM, 24 hours, 60.5% before treatment
Procedure: After the treatment, the cells were collected and fixed with ice-cold 70% ethanol overnight at −20° C. After centrifugation at 1500 rpm for 5 minutes, the pellets were treated with 4 μg/ml PI solution containing 1% Triton X-100 and 50 μg/ml RNase at 37 °C for 30 minutes in the dark. To avoid cell aggregation, the cell solutions were filtrated through nylon membrane (Becton-Dickinson, San Jose, Calif.). Subsequently, the samples were analyzed by flow cytometry. For each measurement, 10,000 cells were analyzed for DNA content. The percentage of cell cycle phases was quantified by ModFit LT software (Ver. 2.0, Becton-Dickinson).

[16] = target: T9, STK10 (lymphocyte-oriented kinase) (Homo sapiens, UniProt O94804); test: KinaseProfiler assay, STK10; format: biochemical; settings: read-out: KAR value (kinase activity remaining)
T9 construct: purchased Merck Millipore (KinaseProfiler service)
From the text: as §3

caspase 3 = test: Western blot of active caspase 3 in A549 cells; settings: 10-40 μM, 24 hours
Procedure: as §4, §5

T5 sequence (P53667 whole entry): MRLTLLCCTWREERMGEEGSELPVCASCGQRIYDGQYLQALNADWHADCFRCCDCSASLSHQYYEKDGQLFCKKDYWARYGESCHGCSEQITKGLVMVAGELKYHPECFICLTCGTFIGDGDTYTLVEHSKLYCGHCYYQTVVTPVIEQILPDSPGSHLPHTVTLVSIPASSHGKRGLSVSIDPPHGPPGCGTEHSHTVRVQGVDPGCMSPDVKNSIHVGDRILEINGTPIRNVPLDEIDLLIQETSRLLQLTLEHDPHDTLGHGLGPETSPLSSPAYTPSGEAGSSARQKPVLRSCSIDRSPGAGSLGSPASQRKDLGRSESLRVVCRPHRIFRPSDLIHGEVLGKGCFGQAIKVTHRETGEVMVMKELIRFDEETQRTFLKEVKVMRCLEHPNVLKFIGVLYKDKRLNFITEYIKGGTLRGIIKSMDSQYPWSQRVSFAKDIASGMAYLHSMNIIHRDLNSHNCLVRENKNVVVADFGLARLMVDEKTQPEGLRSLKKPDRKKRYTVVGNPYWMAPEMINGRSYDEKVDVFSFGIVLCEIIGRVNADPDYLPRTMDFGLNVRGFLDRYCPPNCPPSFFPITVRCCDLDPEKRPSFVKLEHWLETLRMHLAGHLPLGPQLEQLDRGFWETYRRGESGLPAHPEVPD
T1 sequence (Q16539 whole entry): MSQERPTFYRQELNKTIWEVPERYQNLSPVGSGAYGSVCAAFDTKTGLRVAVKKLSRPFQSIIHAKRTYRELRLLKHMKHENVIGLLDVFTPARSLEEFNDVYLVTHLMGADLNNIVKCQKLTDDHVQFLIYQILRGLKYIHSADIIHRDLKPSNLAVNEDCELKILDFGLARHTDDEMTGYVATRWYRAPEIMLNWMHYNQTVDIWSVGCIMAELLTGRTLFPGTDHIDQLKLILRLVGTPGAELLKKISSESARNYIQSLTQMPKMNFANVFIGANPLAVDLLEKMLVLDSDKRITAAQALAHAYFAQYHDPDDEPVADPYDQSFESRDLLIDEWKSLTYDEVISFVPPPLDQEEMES
T9 sequence (O94804 whole entry): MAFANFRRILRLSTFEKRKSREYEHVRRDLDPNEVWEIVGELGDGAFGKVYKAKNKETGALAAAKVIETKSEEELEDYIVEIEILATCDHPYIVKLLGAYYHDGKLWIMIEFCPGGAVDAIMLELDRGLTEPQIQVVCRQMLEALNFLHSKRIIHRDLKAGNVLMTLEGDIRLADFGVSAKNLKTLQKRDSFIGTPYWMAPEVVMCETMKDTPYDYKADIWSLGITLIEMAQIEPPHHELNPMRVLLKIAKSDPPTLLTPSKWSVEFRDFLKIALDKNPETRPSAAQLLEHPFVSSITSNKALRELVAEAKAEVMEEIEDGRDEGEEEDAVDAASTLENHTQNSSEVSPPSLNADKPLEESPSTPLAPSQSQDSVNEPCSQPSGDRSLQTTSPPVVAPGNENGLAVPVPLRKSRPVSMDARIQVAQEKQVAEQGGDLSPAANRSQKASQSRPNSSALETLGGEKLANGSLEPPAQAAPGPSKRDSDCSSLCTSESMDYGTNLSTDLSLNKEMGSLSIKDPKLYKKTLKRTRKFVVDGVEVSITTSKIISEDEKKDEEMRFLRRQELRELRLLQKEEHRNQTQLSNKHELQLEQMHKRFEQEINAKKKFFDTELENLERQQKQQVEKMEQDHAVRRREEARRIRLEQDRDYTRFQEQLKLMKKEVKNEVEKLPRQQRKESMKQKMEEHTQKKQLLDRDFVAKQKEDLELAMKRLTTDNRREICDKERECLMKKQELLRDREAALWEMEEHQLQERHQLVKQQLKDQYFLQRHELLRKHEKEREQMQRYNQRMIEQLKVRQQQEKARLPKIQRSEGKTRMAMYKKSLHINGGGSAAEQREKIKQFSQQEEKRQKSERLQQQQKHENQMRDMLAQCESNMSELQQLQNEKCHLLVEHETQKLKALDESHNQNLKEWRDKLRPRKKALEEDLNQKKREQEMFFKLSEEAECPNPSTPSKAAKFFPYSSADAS
T4 sequence (Q7KZI7 1-725 isoform Q7KZI7-4): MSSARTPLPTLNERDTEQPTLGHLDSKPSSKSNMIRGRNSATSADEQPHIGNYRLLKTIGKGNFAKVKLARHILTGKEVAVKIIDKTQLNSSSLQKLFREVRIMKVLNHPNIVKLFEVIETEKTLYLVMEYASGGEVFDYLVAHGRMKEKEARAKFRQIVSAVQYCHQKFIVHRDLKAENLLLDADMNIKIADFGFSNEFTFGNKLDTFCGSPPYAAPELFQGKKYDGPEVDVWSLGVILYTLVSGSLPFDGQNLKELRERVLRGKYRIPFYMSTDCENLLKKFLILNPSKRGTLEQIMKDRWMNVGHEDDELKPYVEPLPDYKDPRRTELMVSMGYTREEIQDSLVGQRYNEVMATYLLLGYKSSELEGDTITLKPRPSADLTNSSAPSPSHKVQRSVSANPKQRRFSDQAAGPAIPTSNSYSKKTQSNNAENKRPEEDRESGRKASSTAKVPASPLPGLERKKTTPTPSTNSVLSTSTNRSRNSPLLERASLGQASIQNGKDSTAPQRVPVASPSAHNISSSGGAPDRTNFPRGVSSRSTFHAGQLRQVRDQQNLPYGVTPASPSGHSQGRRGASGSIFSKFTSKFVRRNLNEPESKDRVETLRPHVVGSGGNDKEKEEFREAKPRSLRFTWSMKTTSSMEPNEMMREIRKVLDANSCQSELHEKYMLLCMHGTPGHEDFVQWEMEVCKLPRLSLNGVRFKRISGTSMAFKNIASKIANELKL
T7 sequence (Q9HBH9 whole entry): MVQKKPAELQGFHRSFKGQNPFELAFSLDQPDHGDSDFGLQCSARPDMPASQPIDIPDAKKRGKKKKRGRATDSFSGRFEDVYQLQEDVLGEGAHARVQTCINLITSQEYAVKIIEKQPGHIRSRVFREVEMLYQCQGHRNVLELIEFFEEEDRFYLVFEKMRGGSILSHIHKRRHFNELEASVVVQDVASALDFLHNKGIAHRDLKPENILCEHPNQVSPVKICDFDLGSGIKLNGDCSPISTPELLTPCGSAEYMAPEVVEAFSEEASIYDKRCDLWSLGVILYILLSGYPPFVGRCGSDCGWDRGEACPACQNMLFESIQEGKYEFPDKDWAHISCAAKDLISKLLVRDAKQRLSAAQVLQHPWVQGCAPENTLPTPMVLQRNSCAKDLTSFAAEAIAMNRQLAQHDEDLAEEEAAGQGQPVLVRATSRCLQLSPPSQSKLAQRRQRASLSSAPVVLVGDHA
T8 sequence (P11362 22-822): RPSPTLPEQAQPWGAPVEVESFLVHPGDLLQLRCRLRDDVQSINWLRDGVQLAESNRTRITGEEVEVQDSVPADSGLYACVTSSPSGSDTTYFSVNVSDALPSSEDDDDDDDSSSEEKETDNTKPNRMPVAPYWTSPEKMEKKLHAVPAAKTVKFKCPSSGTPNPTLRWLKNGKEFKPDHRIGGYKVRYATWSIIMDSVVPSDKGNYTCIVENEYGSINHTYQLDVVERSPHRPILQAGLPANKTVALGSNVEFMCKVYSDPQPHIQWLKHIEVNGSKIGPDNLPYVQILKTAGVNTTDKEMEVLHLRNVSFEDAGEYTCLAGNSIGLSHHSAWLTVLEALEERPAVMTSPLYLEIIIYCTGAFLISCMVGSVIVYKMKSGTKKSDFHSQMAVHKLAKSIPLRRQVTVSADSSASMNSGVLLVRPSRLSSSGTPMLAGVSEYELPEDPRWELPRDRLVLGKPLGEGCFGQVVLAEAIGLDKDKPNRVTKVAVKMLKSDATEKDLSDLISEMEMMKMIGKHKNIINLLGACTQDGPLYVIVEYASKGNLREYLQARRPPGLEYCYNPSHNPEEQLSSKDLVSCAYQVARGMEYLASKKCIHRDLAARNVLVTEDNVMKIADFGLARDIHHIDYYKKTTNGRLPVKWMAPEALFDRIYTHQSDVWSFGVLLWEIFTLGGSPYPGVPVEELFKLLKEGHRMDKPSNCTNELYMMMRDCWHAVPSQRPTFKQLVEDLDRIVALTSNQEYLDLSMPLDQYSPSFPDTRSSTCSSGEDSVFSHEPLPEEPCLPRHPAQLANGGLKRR
T2 sequence (P68400 whole entry): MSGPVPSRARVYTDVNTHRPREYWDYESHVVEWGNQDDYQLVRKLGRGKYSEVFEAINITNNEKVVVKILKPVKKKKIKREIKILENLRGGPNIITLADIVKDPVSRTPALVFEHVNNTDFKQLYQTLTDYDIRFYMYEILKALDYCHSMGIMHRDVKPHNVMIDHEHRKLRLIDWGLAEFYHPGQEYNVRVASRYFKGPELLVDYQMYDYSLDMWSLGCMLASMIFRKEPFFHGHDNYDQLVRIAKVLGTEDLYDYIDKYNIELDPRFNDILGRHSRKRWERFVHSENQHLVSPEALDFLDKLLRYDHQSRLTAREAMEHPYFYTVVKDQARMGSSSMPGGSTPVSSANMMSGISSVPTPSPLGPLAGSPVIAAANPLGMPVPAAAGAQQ

SMILES	viability at 10 µM (A549 cell line) [%]	viability at 20 µM (A549 cell line) [%]	viability at 40 µM (A549 cell line) [%]	viability at 60 µM (A549 cell line) [%]	viability at 80 µM (A549 cell line) [%]	other results
COC(=O)CCC(=O)N1CCN(CCCOc2cc3c(Nc4ccc(F)c(Cl)c4)ncnc3cc2OC)CC1 [Analogue-1, methyl 4-(4-(3-(4-(3-chloro-4-fluorophenylamino)-7-methoxyquinazolin-6-yloxy)propyl)piperazin-1-yl)-4-oxobutanoate]	89.1	85.6	75.9	74.4	75.9	toxicity effect on RKO cells [1]: more effective on cell death of RKO cells and BFTC905 cells than Iressa; toxicity effect on BFTC905 cells [2]: more effective on cell death of RKO cells and BFTC905 cells than Iressa
COc1cc2ncnc(Nc3ccc(F)c(Cl)c3)c2cc1OCCCN1CCOCC1 [Iressa, Gefitinib, reference compound]	86.7	82.1	74.3	64.6	60.8	cell growth of A549 cells (A549 cells [3]): inhibit cell growth of A549 cells; remaining activity at 10 µM [4]: 20%; viability at 24 h [5]: > 30%; cleaved form of PARP (PARP): did not induce any significant change of caspase 3 and PARP; remaining activity at 10 µM [6]: 92%; remaining activity at 10 µM [7]: 30%; survivin protein expression (survivin [8]): significantly inhibited surviving protein expression; remaining activity at 10 µM (MARK2 (PAR-1Ba)): 86%; survivin gene expression (survivin [9]): no significant change; remaining activity at 10 µM [10]: 76%; remaining activity at 10 µM [11]: 84%; remaining activity at 10 µM [12]: 9%; remaining activity at 10 µM [13]: 27%; average of total apoptosis (A549 cells [14]): around 19.6%; average percentage of G1 fractions (A549 cells [15]): 76.1%; remaining activity at 10 µM [16]: 19%; active form of caspase 3 (caspase 3): did not induce any significant change of caspase 3 and PARP
CCCCCCCCCCOC(=O)CCC(=O)N1CCN(CCCOc2cc3c(Nc4ccc(F)c(Cl)c4)ncnc3cc2OC)CC1 [Analogue-16, decyl 4-(4-(3-(4-(3-chloro-4-fluorophenylamino)-7-methoxyquinazolin-6-yloxy)propyl)piperazin-1-yl)-4-oxobutanoate]	95.7	88.2	15.5	3.9	2	–
CCCCCCCCOC(=O)CCC(=O)N1CCN(CCCOc2cc3c(Nc4ccc(F)c(Cl)c4)ncnc3cc2OC)CC1 [Analogue-14, octyl 4-(4-(3-(4-(3-chloro-4-fluorophenylamino)-7-methoxyquinazolin-6-yloxy)propyl)piperazin-1-yl)-4-oxobutanoate]	87.3	80	48.7	26	21.7	–
CCCCCCCCCCCOC(=O)CCC(=O)N1CCN(CCCOc2cc3c(Nc4ccc(F)c(Cl)c4)ncnc3cc2OC)CC1 [Analogue-17, undecyl 4-(4-(3-(4-(3-chloro-4-fluorophenylamino)-7-methoxyquinazolin-6-yloxy)propyl)piperazin-1-yl)-4-oxobutanoate]	93.4	85.2	12	3.9	2.8	–
COc1cc2ncnc(Nc3ccc(F)c(Cl)c3)c2cc1OCCCN1CCN(C(=O)CCC(=O)O)CC1 [Analogue-2, 4-(4-(3-(4-(3-chloro-4-fluorophenylamino)-7-methoxyquinazolin-6-yloxy)propyl)piperazin-1-yl)-4-oxobutanoic acid]	–	–	–	–	–	toxicity effect on RKO cells [1]: no toxicity effect on RKO cells; toxicity effect on BFTC905 cells [2]: minor toxicity effect on BFTC905 cells
COC(=O)CCCC(=O)N1CCN(CCCOc2cc3c(Nc4ccc(F)c(Cl)c4)ncnc3cc2OC)CC1 [Analogue-3, methyl 5-(4-(3-(4-(3-chloro-4-fluorophenylamino)-7-methoxyquinazolin-6-yloxy)propyl)piperazin-1-yl)-5-oxopentanoate]	99.9	94.8	91.9	91.3	89.8	–
CCCOC(=O)CCC(=O)N1CCN(CCCOc2cc3c(Nc4ccc(F)c(Cl)c4)ncnc3cc2OC)CC1 [Analogue-9, propyl 4-(4-(3-(4-(3-chloro-4-fluorophenylamino)-7-methoxyquinazolin-6-yloxy)propyl)piperazin-1-yl)-4-oxobutanoate]	95.1	87	80.9	70.4	23.4	–
CCOC(=O)CCC(=O)N1CCN(CCCOc2cc3c(Nc4ccc(F)c(Cl)c4)ncnc3cc2OC)CC1 [Analogue-8, ethyl 4-(4-(3-(4-(3-chloro-4-fluorophenylamino)-7-methoxyquinazolin-6-yloxy)propyl)piperazin-1-yl)-4-oxobutanoate]	77.6	70	67.4	61.6	35.6	–
COC(=O)CCCCC(=O)N1CCN(CCCOc2cc3c(Nc4ccc(F)c(Cl)c4)ncnc3cc2OC)CC1 [Analogue-4, methyl 6-(4-(3-(4-(3-chloro-4-fluorophenylamino)-7-methoxyquinazolin-6-yloxy)propyl)piperazin-1-yl)-6-oxohexanoate]	94.6	90.4	84.3	83.3	79.4	–
